Read-outs that look alike come from different tables or passages of the source. One block for each compound: values may come before it.
Experiments:
[1] = system: PC-3 prostate cancer cells; experiment: Growth inhibition by MTT staining, PC-3; format: cell-based, Human; details: MTT
Experimental: (§1) Growth inhibitory effects of PCNA-I1 and PCNA-I2 were assessed in human cancer cell lines, mouse cancer cell lines, immortalized mouse cell lines, and human primary cell lines. Specifically, growth inhibitory effects of PCNA-I1 and PCNA-I2 were assessed using MTT staining in the following cells lines: 1) human cancer cell lines including LNCaP (androgen receptor […]), 22Rv1, DU-145, LAPC-4, and PC-3 (androgen receptor […]) prostate cancer cells; MCF-7 and T47D breast cancer cells; A375 and MDA-MB435 melanoma cells; 2) mouse cancer cell lines including TRAMP-C2RE3 prostate cancer cells, B16 and K1735 melanoma cells, UV2237 fibrosarcoma cells, and CT-26 colon cancer cells; 3) immortalized mouse lung cell lines and mouse endothelial cell lines; and 4) primary human cell lines including umbilical endothelial cells (HUVEC, PromoCell, Heidelberg, Germany), primary bone marrow mesenchymal stem cells (HuMSC, PromoCell), primary human mammary epithelial cells (HuBrEC, Lonza, Walkersville, Md.), primary human prostate epithelial cells (HuPrEC, Lonza), and primary mouse spleen lymphocytes (isolated in this laboratory), and primary mouse bone marrow stromal cells (isolated in this laboratory). PCNA-I1 and PCNA-I2 were either provided by the University of Cincinnati Drug Discovery Center (UC-DDC, Cincinnati, Ohio) or were purchased from Chembridge Co (San Diego, Calif.), ChemDiv (San Diego, Calif.), and/or Sigma-Aldrich (St Louis, Mo.).
(§2) Growth inhibitory effects of the compounds were assessed by MTT staining as described previously by Dong et al. in In Vitro Model for Intrinsic Drug Resistance: Effects of Protein Kinase C Activators on the Chemosensitivity of Cultured Human Colon Cancer Cells; Mol. Pharmacol. 1991; 39: 563-9. Briefly, cells were cultured and treated in their respective media. Cells were plated into 96-well plates at 1000 to 5000 cells/well. After an overnight incubation, the cells were treated for four days with various concentrations (up to 10 μM) of PCNA-I1 or PCNA-I2. The live cells were stained with MTT and cells in exponential growth phase were harvested by a one to three minute treatment with a 0.25% trypsin-0.02% EDTA solution. Flasks were tapped to detach the cells, RPMI 1640-10% FBS was added, and the cell suspensions were gently agitated to produce single-cell suspensions. The cell suspensions were washed and resuspended in medium with supplements specified for different cells. Only suspensions of single cells with a viability exceeding 95% (ascertained by trypan blue exclusion) were used.
(§3) IC50 values were derived from growth inhibition curves. Data for tumor cells are a mean of five to seven experiments. Data for primary cells are a mean of three experiments. […] Inhibition of cell growth was calculated using the formula: growth inhibition (%)=(1−A570 of treated/A570 of control)×100. IC50 (the concentration that inhibited cell growth by 50%) values were also determined. For evaluation of lymphocyte growth in suspension, an Alamar blue assay was performed, wherein freshly prepared mouse spleen lymphocytes were stimulated for 72 H with 2 ug/mL concanavalin A (Sigma Chemicals, St. Louis, […].). During the last 24 H, 20 μl/well of Alamar blue (Invitrogen, Carlsbad, Calif.) was added. The fluorescence intensity was measured at 530/580 (excitation/emission) in the FLUOstar Omega microplate reader (BMG LABTECH, Cary, N.C.).
(§4) Growth inhibitory effects of PCNA-I3, PCNA-I4, PCNA-I6, PCNA-I7, PCNA-I8, PCNA-I9 and PCNA-I10 were assessed in human prostate cancer cell lines. Specifically, growth inhibitory effects of PCNA-I3, PCNA-I4, PCNA-I6, PCNA-I7, PCNA-I8, PCNA-I9 and PCNA-I10 were assessed using MTT staining in LNCaP and PC-3 cells. […]

[2] = system: LNCaP prostate cancer cells; experiment: Growth inhibition by MTT staining, LNCaP; format: cell-based, Human; details: 96 h
Experimental: as §1, §2, §3, §4

[3] = system: primary mouse spleen lymphocytes; experiment: Alamar blue assay of lymphocyte growth; format: cell-based; details: 2 μg/mL, 72 H; FIG. 2(A)
Experimental: as §3
The effects of PCNA-I1 on growth of tumor cells versus primary cells was also investigated. Specifically, the effects of PCNA-1I on the growth of primary cells was investigated using primary culture of mouse lymphocytes. An Alamar blue assay was performed with PC-3 cells as a positive control. Freshly prepared mouse spleen lymphocytes were stimulated for 72 H with 2 μg/mL of concanavalin A. During the last 24 H, 20 μL/well of alamar blue was added. The fluorescence intensity was measured at 530/580 (excitation/emission).

[4] = system: MCF-7 breast cancer cells; experiment: Growth inhibition by MTT staining, MCF-7; format: cell-based; details: MCF7, 96 h, Human, tumor cells, treated four days
Experimental: as §1, with “PCNA-I1 and PCNA-I2 were either provided by the University of Cincinnati Drug Discovery Center (UC-DDC, Cincinnati, Ohio) or were purchased from Chembridge Co (San Diego, Calif.), ChemDiv (San Diego, Calif.), and/or Sigma-Aldrich (St Louis, Mo.).” left out
(§5) IC50 values were derived from growth inhibition curves. […] Inhibition of cell growth was calculated using the formula: growth inhibition (%)=(1−A570 of treated/A570 of control)×100. […]

[5] = system: DU145 prostate cancer cells; experiment: Growth inhibition by MTT staining, DU145; format: cell-based; details: DU-145, 96 h, Human tumor cells, treated four days
Experimental: as §1, with “PCNA-I1 and PCNA-I2 were either provided by the University of Cincinnati Drug Discovery Center (UC-DDC, Cincinnati, Ohio) or were purchased from Chembridge Co (San Diego, Calif.), ChemDiv (San Diego, Calif.), and/or Sigma-Aldrich (St Louis, Mo.).” left out
as §5

[6] = system: LAPC-4 prostate cancer cells; experiment: Growth inhibition by MTT staining, LAPC-4; format: cell-based; details: LAPC4, 96 h, Human tumor cells, treated four days
Experimental: as §1, with “PCNA-I1 and PCNA-I2 were either provided by the University of Cincinnati Drug Discovery Center (UC-DDC, Cincinnati, Ohio) or were purchased from Chembridge Co (San Diego, Calif.), ChemDiv (San Diego, Calif.), and/or Sigma-Aldrich (St Louis, Mo.).” left out
as §5

[7] = system: A375 melanoma cells; experiment: Growth inhibition by MTT staining, A375; format: cell-based; details: A-375, 96 h, Human, treated four days
Experimental: as §1, with “PCNA-I1 and PCNA-I2 were either provided by the University of Cincinnati Drug Discovery Center (UC-DDC, Cincinnati, Ohio) or were purchased from Chembridge Co (San Diego, Calif.), ChemDiv (San Diego, Calif.), and/or Sigma-Aldrich (St Louis, Mo.).” left out
as §5

[8] = system: Tumor Cells; experiment: Growth inhibition, mean over tumor cell lines; format: cell-based; details: most cell lines examined
Experimental: as §1, with “PCNA-I1 and PCNA-I2 were either provided by the University of Cincinnati Drug Discovery Center (UC-DDC, Cincinnati, Ohio) or were purchased from Chembridge Co (San Diego, Calif.), ChemDiv (San Diego, Calif.), and/or Sigma-Aldrich (St Louis, Mo.).” left out
as §5

[9] = molecular target: T1, PCNA (Homo sapiens, UniProt P12004); experiment: PCNA trimer formation assay, PC-3 cell lysate; format: biochemical; details: PC-3 lysate, 1 μM or 10 μM, 3 H, SDS-PAGE; FIG. 9(A)
T1 construct: endogenous PCNA was knocked down with transfection of PCNA-specific siRNA; endogenous in cells; host or cells: PC-3
T1 sequence (P12004 whole entry): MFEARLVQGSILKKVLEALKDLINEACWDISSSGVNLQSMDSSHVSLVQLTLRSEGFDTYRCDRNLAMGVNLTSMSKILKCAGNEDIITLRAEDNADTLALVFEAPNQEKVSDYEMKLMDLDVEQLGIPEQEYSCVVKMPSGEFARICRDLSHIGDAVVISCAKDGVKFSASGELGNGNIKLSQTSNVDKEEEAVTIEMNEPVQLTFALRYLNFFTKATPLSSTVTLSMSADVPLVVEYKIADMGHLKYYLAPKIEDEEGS
Experimental: The effect of PCNA-I1, PCNA-I2, PCNA-I3, PCNA-I4, PCNA-I6, PCNA-I7, PCNA-I8, PCNA-I9, and PCNA-I10 on PCNA trimer formation was investigated by SDS-PAGE and immunoblotting. Specifically, a trimer formation assay was performed on both PC-3 cell lysates and purified recombinant protein. The trimer formation assay was performed on purified recombinant protein to determine whether the effects of PCNA compounds on the stable trimer formation required the participation of other cellular proteins.
Purified His-PCNA (0.1 μg/reaction) and PC-3 cell lysates (50 μg/reaction) were incubated for 3 H at room temperature in a reaction buffer (40 mM Tris-HCl, pH 7.5, 0.2 mg/mL BSA, 10 mM MgCl2, and 10% glycerol) in the absence or presence of DMSO (0.1% vehicle control) or PCNA-I1, PCNA-I2, PCNA-I3, PCNA-I4, PCNA-I6, PCNA-I7, PCNA-I8, PCNA-I9, or PCNA-I10 (1 μM or 10 μM). The reaction was stopped by addition of the SDS-PAGE sample buffer without a reducing agent. The samples were resolved in SDS-PAGE without boiling and analyzed by immunoblotting using PCNA antibody.

[10] = system: GFP-PCNA; experiment: GFP-PCNA chromatin association, fluorescence microscopy; format: cell-based, Human; details: PC-3 transfected with pGFP-PCNA; 4 H, 0.5 μM PCNA-I1 or 2 μM PCNA-I2; FIG. 11
Experimental: Additionally, PC-3 cells were transfected for 24 H with pGFP-PCNA. The cells were then treated for 4 H with 0.5 μM of PCNA-I1 or 2 μM of PCNA-I2. The intact GFP-PCNA expressing cells were observed under a fluorescent microscope and recorded. After treatment with a buffer with 0.5% NP-40 buffer B, the cells were examined and recorded.

[11] = system: LNCaP cells; experiment: DNA damage, apoptosis and cell cycle proteins by immunoblot, LNCaP; format: cell-based, Human
Experimental: Fluorescence-activated cell sorting (FACS) analysis was performed on both PC-3 cells and LNCaP cells using PCNA-I1. Specifically, cells were treated with 1 or 10 μM PCNA-I1 and sampled for the flow cytometry analysis at 24 H, 48 H, and 72 H. Expression of DNA damage and apoptosis-related proteins in PC-3 cells and LNCaP cells was also determined. Cisplatin, a well-known drug that induces DNA damage and apoptosis, was included in the experiment. LNCaP cells were treated for 6 H, 12 H, or 18 H with 10 μM PCNA-I1, 10 μM cisplatin, or both.
To further explore the differential effects of PCNA-I1 on LNCaP and PC-3 cells, the effects of PCNA-I1 and cisplatin on expression of cell cycle- and apoptosis-related proteins in the two cell lines were compared. LNCaP cells and PC-3 cells were treated with 1 μM PCNA-I1 and/or 5 μM cisplatin for 12 H, 18 H, or 24 H and cell lysates were sampled for immunoblotting.

[12] = system: LNCaP cells; experiment: MTT assay, PCNA-I1 and cisplatin alone or combined, LNCaP; format: cell-based, Human
Experimental: (§6) LNCaP or PC-3 cells were treated with a variety of concentrations of PCNA-I1 (0.1-10 μM) or cisplatin (0.1-10 μM) alone, or with a variety of concentrations of a combination of PCNA-I1 (0.1-10 μM) and cisplatin (0.1-10 μM) for four days. MTT assays were performed and IC50 values for PCNA-I1 and cisplatin were determined.

[13] = system: PC-3 cells; experiment: MTT assay, PCNA-I1 and cisplatin alone or combined, PC-3; format: cell-based, Human
Experimental: as §6

[14] = Homo sapiens, PC-3, 96 h, Table III, four days, mean of two experiments, read-out: IC50 Values of PCNA Inhibitors, PC-3 Cells
[15] = Homo sapiens, Table III, four days, mean of two experiments, read-out: IC50 Values of PCNA Inhibitors, LNCaP Cells

Compound: concanavalin A [reference compound]
Stimulation of lymphocyte growth [3]: about 3.5 fold

Compound: O=C(N/N=C/c1c(O)ccc2ccccc12)c1ccn[nH]1 [PCNA-I2]
IC50 [4]: 1.01 µM
IC50 ([1]; 96 h, Table II, Human tumor cells, treated four days, mean of five to seven experiments, read-out: IC50 Values, PC-3): 0.97 µM
IC50 [5]: 1.19 µM
IC50 [6]: 1.79 µM
IC50 ([2]; Table II, Human tumor cells, treated four days, mean of five to seven experiments, read-out: IC50 Values, LNCaP): 0.56 µM
IC50 [7]: 3.75 µM
Potency relative to PCNA-I1 [8]: about three to five times less potent than PCNA-I1
Portion of PCNA in the trimer form [9]: significantly elevated
Level of chromatin-associated GFP-PCNA [10]: reduced the level of chromatin-associated GFP-PCNA
Total intensity of GFP-PCNA [10]: did not significantly alter the total intensity of GFP-PCNA

Compound: Cc1ccc2[nH]c(=O)c(/C=N/NC(=O)c3ccccc3)c(O)c2c1 [PCNA-I6]
IC50 [1, 14]: > 10 µM
IC50 [2, 15]: > 10 µM

Compound: O=C(N/N=C/c1ccc2ccccc2c1O)c1sc2ccccc2c1O [PCNA-I7]
IC50 [1, 14]: 3.6 µM
IC50 [2, 15]: 2.2 µM

Compound: O=C(NNC(=O)c1c(O)c2ccccc2[nH]c1=O)c1ccccc1[N+](=O)[O-] [PCNA-I10]
IC50 [1, 14]: > 10 µM
IC50 [2, 15]: 2.2 µM

Compound: N.N.[Cl][Pt][Cl] [cisplatin, reference compound]
Expression of retinoblastoma (Rb) and cyclin D1 ([11]; LNCaP and PC-3, 1 μM PCNA-I1 and/or 5 μM cisplatin, 12-24 H): moderately downregulated expression of cell cycle-regulating proteins
Phosphorylation of p53, single agent ([11]; LNCaP, 10 μM): induced
Expression of p21 protein ([11]; LNCaP, 10 μM PCNA-I1 and/or 10 μM cisplatin): enhanced expression of p21 protein at 6 H and 12 H
PARP cleavage, single agent ([11]; LNCaP, 10 μM alone): induced PARP cleavage
DNA double strand break (γH2AX induction), single agent ([11]; LNCaP, 10 μM alone, 6-18 H, FIG. 17(A)): induced moderate double strand break (DSB) of DNA
IC50 ([12]; MTT, four days, single agent, read-out: IC50 doses for cell growth inhibition, LNCaP, agent alone): 0.65 µM
IC50 ([12]; combined with 0.067 μM PCNA-I1, read-out: Cisplatin concentration giving 50% inhibition in combination, LNCaP): 0.3 µM
IC50 ([13]; MTT, four days, single agent, read-out: IC50 doses for cell growth inhibition, PC-3, agent alone): 0.45 µM
IC50 ([13]; combined with 0.08 μM PCNA-I1, read-out: Cisplatin concentration giving 50% inhibition in combination, PC-3): 0.3 µM

More lines, in order of falling IC50 [1, 14], values ahead:

IC50 [1, 14]: 3 µM
IC50 [2, 15]: 0.68 µM
Compound: O=C(NNS(=O)(=O)c1ccc(Br)cc1)c1c(O)c2ccccc2[nH]c1=O [PCNA-I4]

IC50 [1, 14]: 2.2 µM
IC50 [2, 15]: 0.71 µM
Compound: C/C(=N\NC(=O)c1ccccc1O)c1ccc2ccccc2c1O [PCNA-I9]

IC50 [1, 14]: 1 µM
IC50 [2, 15]: 0.68 µM
Compound: C/C(=N\NC(=O)c1cccc(F)c1)c1ccc2ccccc2c1O [PCNA-I8]

IC50 [1, 14]: 0.44 µM
IC50 [2, 15]: 0.26 µM
Compound: O=C(N/N=C/c1ccc2ccccc2c1O)c1cccc(Cl)c1 [PCNA-I3]

Source: patent US9895363B2, “Methods for modulating function of proliferating cell nuclear antigen (PCNA) and treating cancer with PCNA-targeting compounds” (University of Cincinnati, priority 2010, dated 2018)
